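Assay format: 96-well plates, 48-hour exposure. GI50 = concentration required for 50% inhibition of growth. TGI: concentration producing complete growth inhibition.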
How the values were obtained:
Assay in all cases: DTP human tumour cell line panel, 48 h
SF-268 CNS = test system: SF-268 CNS
NCI-H522 lung = test system: NCI-H522 lung
NCI/ADR-RES ovarian = test system: NCI/ADR-RES ovarian
A549 NSCLC = test system: A549 NSCLC
HCT-116 colon = test system: HCT-116 colon
UO-31 renal = test system: UO-31 renal
786-0 renal = test system: 786-0 renal
SF-295 CNS = test system: SF-295 CNS
A498 renal = test system: A498 renal
SK-MEL-28 melanoma = test system: SK-MEL-28 melanoma
MDA-MB-468 breast = test system: MDA-MB-468 breast
SNB-19 CNS = test system: SNB-19 CNS
U251 CNS = test system: U251 CNS
TK-10 renal = test system: TK-10 renal
SF-539 CNS = test system: SF-539 CNS
NCI-H226 lung = test system: NCI-H226 lung
MDA-MB-231 breast = test system: MDA-MB-231 breast
K-562 leukemia = test system: K-562 leukemia
HL-60(TB) leukemia = test system: HL-60(TB) leukemia
UACC-62 melanoma = test system: UACC-62 melanoma
MDA-MB-435 = test system: MDA-MB-435
EKVX NSCLC = test system: EKVX NSCLC
SNB-75 CNS = test system: SNB-75 CNS
HS 578T breast = test system: HS 578T breast
SK-MEL-2 melanoma = test system: SK-MEL-2 melanoma
RXF 393 renal = test system: RXF 393 renal
OVCAR-4 ovarian = test system: OVCAR-4 ovarian
CAKI-1 renal = test system: CAKI-1 renal
LOX IMVI melanoma = test system: LOX IMVI melanoma
ACHN renal = test system: ACHN renal
HCC-2998 colon = test system: HCC-2998 colon
MALME-3M melanoma = test system: MALME-3M melanoma
HCT-15 colon = test system: HCT-15 colon
RPMI-8226 leukemia = test system: RPMI-8226 leukemia
OVCAR-5 ovarian = test system: OVCAR-5 ovarian
DU-145 prostate = test system: DU-145 prostate
HOP-92 NSCLC = test system: HOP-92 NSCLC
PC-3 prostate = test system: PC-3 prostate
SN12C renal = test system: SN12C renal
HT29 colon = test system: HT29 colon
M14 melanoma = test system: M14 melanoma
OVCAR-3 ovarian = test system: OVCAR-3 ovarian
SK-OV-3 ovarian = test system: SK-OV-3 ovarian
UACC-257 melanoma = test system: UACC-257 melanoma
NCI-H460 lung = test system: NCI-H460 lung
MCF7 breast = test system: MCF7 breast
BT-549 breast = test system: BT-549 breast
NCI-H23 lung = test system: NCI-H23 lung
T-47D breast = test system: T-47D breast
SW-620 colon = test system: SW-620 colon
MOLT-4 leukemia = test system: MOLT-4 leukemia
SK-MEL-5 melanoma = test system: SK-MEL-5 melanoma
IGROV1 ovarian = test system: IGROV1 ovarian
KM12 colon = test system: KM12 colon
OVCAR-8 ovarian = test system: OVCAR-8 ovarian
CCRF-CEM leukemia = test system: CCRF-CEM leukemia
HOP-62 NSCLC = test system: HOP-62 NSCLC
COLO 205 colon = test system: COLO 205 colon

SMILES: C/C(=N/O)c1ccc(NC(=O)CSc2nnc(-c3ccc4nc(-c5ccc(Cl)cc5)[nH]c4c3)o2)cc1
- GI50 (SF-268 CNS): 12.7 µM
- TGI (SF-268 CNS): 30.5 µM
- GI50 (NCI-H522 lung): 3.48 µM
- TGI (NCI-H522 lung): 17.2 µM
- GI50 (NCI/ADR-RES ovarian): > 100 µM
- TGI (NCI/ADR-RES ovarian): > 100 µM
- GI50 (A549 NSCLC): 8.19 µM
- TGI (A549 NSCLC): 28.1 µM
- GI50 (HCT-116 colon): 4.78 µM
- TGI (HCT-116 colon): 37.7 µM
- GI50 (UO-31 renal): 24.8 µM
- TGI (UO-31 renal): > 100 µM
- GI50 (786-0 renal): 3.36 µM
- TGI (786-0 renal): 11.8 µM
- GI50 (SF-295 CNS): 12.9 µM
- TGI (SF-295 CNS): 28.9 µM
- GI50 (A498 renal): 21.3 µM
- TGI (A498 renal): 37.1 µM
- GI50 (SK-MEL-28 melanoma): 2.23 µM
- TGI (SK-MEL-28 melanoma): 5.14 µM
- GI50 (MDA-MB-468 breast): 18.5 µM
- TGI (MDA-MB-468 breast): 33.7 µM
- GI50 (SNB-19 CNS): 12 µM
- TGI (SNB-19 CNS): 25.7 µM
- GI50 (U251 CNS): 3.03 µM
- TGI (U251 CNS): 8.87 µM
- GI50 (TK-10 renal): 28.4 µM
- TGI (TK-10 renal): 56.4 µM
- GI50 (SF-539 CNS): 10.2 µM
- TGI (SF-539 CNS): 22.1 µM
- GI50 (NCI-H226 lung): 13.5 µM
- TGI (NCI-H226 lung): 32.8 µM
- GI50 (MDA-MB-231 breast): 2.22 µM
- TGI (MDA-MB-231 breast): 5.35 µM
- GI50 (K-562 leukemia): 3.39 µM
- TGI (K-562 leukemia): > 100 µM
- GI50 (HL-60(TB) leukemia): 13.8 µM
- TGI (HL-60(TB) leukemia): > 100 µM
- GI50 (UACC-62 melanoma): 3.09 µM
- TGI (UACC-62 melanoma): 11.1 µM
- GI50 (MDA-MB-435): 3.79 µM
- TGI (MDA-MB-435): 15 µM
- GI50 (EKVX NSCLC): 18 µM
- TGI (EKVX NSCLC): 45.1 µM
- GI50 (SNB-75 CNS): 5.87 µM
- TGI (SNB-75 CNS): 22.8 µM
- GI50 (HS 578T breast): 3.63 µM
- TGI (HS 578T breast): 28.6 µM
- GI50 (SK-MEL-2 melanoma): 13.2 µM
- TGI (SK-MEL-2 melanoma): 27.8 µM
- GI50 (RXF 393 renal): 2.38 µM
- TGI (RXF 393 renal): 8.16 µM
- GI50 (OVCAR-4 ovarian): 18.7 µM
- TGI (OVCAR-4 ovarian): 42 µM
- GI50 (CAKI-1 renal): 12.3 µM
- TGI (CAKI-1 renal): 28.5 µM
- GI50 (LOX IMVI melanoma): 1.94 µM
- TGI (LOX IMVI melanoma): 4.05 µM
- GI50 (ACHN renal): 15.8 µM
- TGI (ACHN renal): 35 µM
- GI50 (HCC-2998 colon): 43.2 µM
- TGI (HCC-2998 colon): > 100 µM
- GI50 (MALME-3M melanoma): 1.93 µM
- TGI (MALME-3M melanoma): 4.86 µM
- GI50 (HCT-15 colon): 56.9 µM
- TGI (HCT-15 colon): > 100 µM
- GI50 (RPMI-8226 leukemia): 13.6 µM
- TGI (RPMI-8226 leukemia): 71.5 µM
- GI50 (OVCAR-5 ovarian): 17.8 µM
- TGI (OVCAR-5 ovarian): 36.1 µM
- GI50 (DU-145 prostate): 17.7 µM
- TGI (DU-145 prostate): 33.3 µM
- GI50 (HOP-92 NSCLC): 3.12 µM
- TGI (HOP-92 NSCLC): 9.48 µM
- GI50 (PC-3 prostate): 3.6 µM
- TGI (PC-3 prostate): 16.3 µM
- GI50 (SN12C renal): 4.04 µM
- TGI (SN12C renal): 15.5 µM
- GI50 (HT29 colon): 9.34 µM
- TGI (HT29 colon): 29.8 µM
- GI50 (M14 melanoma): 3.38 µM
- TGI (M14 melanoma): 15 µM
- GI50 (OVCAR-3 ovarian): 18.8 µM
- TGI (OVCAR-3 ovarian): 38 µM
- GI50 (SK-OV-3 ovarian): 20.4 µM
- TGI (SK-OV-3 ovarian): 39.4 µM
- GI50 (UACC-257 melanoma): 12.9 µM
- TGI (UACC-257 melanoma): 29.8 µM
- GI50 (NCI-H460 lung): 12.7 µM
- TGI (NCI-H460 lung): 32.4 µM
- GI50 (MCF7 breast): 6.65 µM
- TGI (MCF7 breast): 26 µM
- GI50 (BT-549 breast): 4.36 µM
- TGI (BT-549 breast): 20.5 µM
- GI50 (NCI-H23 lung): 3.43 µM
- TGI (NCI-H23 lung): 16.7 µM
- GI50 (T-47D breast): 17.3 µM
- TGI (T-47D breast): 41.9 µM
- GI50 (SW-620 colon): 22 µM
- TGI (SW-620 colon): 59.5 µM
- GI50 (MOLT-4 leukemia): 3.66 µM
- TGI (MOLT-4 leukemia): > 100 µM
- GI50 (SK-MEL-5 melanoma): 5.47 µM
- TGI (SK-MEL-5 melanoma): 18.2 µM
- GI50 (IGROV1 ovarian): 16.2 µM
- TGI (IGROV1 ovarian): 30.5 µM
- GI50 (KM12 colon): 16.7 µM
- TGI (KM12 colon): 43 µM
- GI50 (OVCAR-8 ovarian): 3.29 µM
- TGI (OVCAR-8 ovarian): 15.1 µM
- GI50 (CCRF-CEM leukemia): 3.05 µM
- TGI (CCRF-CEM leukemia): > 100 µM
- GI50 (HOP-62 NSCLC): 2.57 µM
- TGI (HOP-62 NSCLC): 8.69 µM
- GI50 (COLO 205 colon): 22.3 µM
- TGI (COLO 205 colon): 66.1 µM

Reference: PubChem BioAssay (NCI)
